The results in this text go back to patent publication EP0269230A1, “Heterocyclic compounds” (priority 1986, dated 1988).

Data set [1] concerns Musca domestica (WRL strain). The data set can be described thus: Topical application to unanaesthetised female Musca domestica. In kind it is in vivo. The conditions noted are these: topical application in cellosolve; mortality assessed after 10 mins, 1 hr, 24 hrs and 48 hrs. The protocol: Mortality was assessed after 10 mins, 1 hr, 24 hrs and 48 hrs.
In another data set the test system is Myzus persicae. The data set can be described thus: Lethal activity against insects, spray test on adult Myzus on chinese cabbage leaf disc. It counts as in vivo. The conditions noted are these: 10 adult Myzus on leaf disc sprayed, mortality after 2 days at 25°C. On the procedure:
(§1) The activity of the compounds of the invention was tested by dissolving the compounds in acetone (5%) and then diluting in water: "Symperonic" (94.5%:0.5%) to give a water emulsion. The solution was then used to treat the following insects: Musca domestica, Plutella xylostella, Myzus persicae and Tetranychus urticae.
10 adult Myzus were placed on a leaf disc of chinese cabbage. 24 hours later the disc was sprayed with the solution containing the compound. Mortality was assessed after 2 days at 25°C.

In another data set the test system is Musca domestica. Put plainly: Lethal activity against insects, spray test on female Musca domestica. It counts as in vivo. The conditions noted are these: sprayed onto 20 female Musca domestica, mortality after 48 hrs at 25°C. On the procedure: as §1
20 Female Musca domestica were contained in a cardboard cyclinder with gauze over either end. A solution containing the compounds was sprayed onto the insects so enclosed and mortality assessed after 48 hrs at 25°C.

Data set [2] relates to Coriolusversicolor, Coniophora putena, Aureobasidium pullulans and Chaetomium globosum. The data set can be described thus: Antifungal testing, primary soft agar screen, inhibition of hyphae growth. It counts as cell-based. The conditions noted are these: fungus not specified per compound; for IC50: read-out: IC₅₀. The protocol:
The antifungal activity of compounds of the invention was determined using a primary soft agar screen. The concentration dependent inhibition of hyphae growth was determined for Coriolusversicolor, Coniophora putena, Aureobasidium pullulans and Chaetomium globosum.

The nature of data set [3]: Mammalian toxicity, oral, mice. In kind it is in vivo. As to conditions: given orally to mice (Charles River CD1). On the procedure: 1-(2E)-6-Methoxyimino-3-methylhex-2-enyl-2-methylbenzimidazole and 1-geranyl-2,6,7-trimethylbenzimidazole have an LD₅₀ value of approximately 200 mg when given orally to mice (Charles River CD1).
In a further data set the test system is Plutella xylostella. The data set can be described thus: Lethal activity against insects, spray test on Plutella larvae on chinese cabbage leaf. It counts as in vivo. The conditions noted are these: 7 Plutella larvae and leaf sprayed, mortality after 2 days at 25°C. The protocol: as §1
7 Plutella larvae were sprayed with the solution containing the compound and added to a chinese cabbage leaf which had been similarly sprayed and left to dry. Mortality was assessed after 2-days at 25°C.

A further data set deals with Tetranychus urticae. Put plainly: Lethal activity, spray test on infested french bean leaf discs. In kind it is in vivo. As to conditions: infested leaf discs sprayed, mortality after 2 days at 25°C. The protocol: as §1
Leaf discs of infested french bean were sprayed with the solution containing the compound. Mortality was assessed after 2 days at 25°C.

In brackets after ≈: the same amount, converted by molar mass.

Compound “1-Geranyl-2-methyl-5(6)-nitrobenzimidazole” registered an LD₅₀ in data set [1] of less than 10 µg/fly. Besides, the “active on Myzus persicae at 1000 ppm” value in the data set with Myzus persicae is listed as “active”.
For the compound “1-Geranyl-5(6)-methoxy-2-methylbenzimidazole”, the “active at 1000 ppm” value in the data set on Musca domestica is listed as “active”. Besides, the LD₅₀ in data set [1] is listed as less than 10 µg/fly. For the same compound, in the data set with Myzus persicae, the “active on Myzus persicae at 1000 ppm” value is reported as “active”. In data set [2], this compound registered an IC₅₀ of 30 ppm.
In data set [2], “5(6)-Chloro-geranyl-2-methylbenzimidazole” came in with an IC₅₀ of 30 ppm.
The same measure, in the same setting: the result for “5(6)-Ethoxy-1-geranyl-2-methyl-benzimidazole” reads 30 ppm.
Regarding `CC(=CCn1c(C)nc2ccccc21)CCOC(C)C` (mixture of isomers) [(E/Z)-1-(5-isopropoxy-3-methylpent-2-enyl)-2-methylbenzimidazole], in data set [1], the LD₅₀ is on record as less than 10 µg/fly.
In the case of `C/C(=C\Cn1c(C)nc2ccccc21)CCC=C(Cl)Cl` [1-, (2E)-7,7-Dichloro-3-methylhepta-2,6-dienyl,-2-methylbenzimidazole], in data set [2], the IC50 was determined as 30 µg/mL (≈ 97 µM).
In the case of `CC(C)=CCC/C(C)=C/Cn1c(C)nc2c(C)cccc21` [1-Geranyl-2,4-dimethylbenzimidazole, 2,4-Dimethyl-1-geranylbenzimidazole], the “active at 200 ppm” value in the data set with Musca domestica and in the data set on Myzus persicae was “active” each time. In addition, the LD₅₀ in data set [1] is reported as less than 10 µg/fly. Besides, in data set [2], the IC50 stood at 30 µg/mL (≈ 106 µM).
Consider `CC(C)=CCC/C(C)=C/Cn1c(C)nc2cc(C)c(C)cc21` [1-Geranyl-2,5,6-trimethylbenzimidazole], for which, in data set [2], the IC50 is 30 µg/mL (≈ 101 µM).
For `CC(C)=CCC/C(C)=C/Cn1c(C)nc2ccc(C)c(C)c21` [1-Geranyl-2,6,7-trimethylbenzimidazole], the “active at 1000 ppm” value in the data set with Musca domestica is listed as “active”. Further, the figures for the LD₅₀ in data set [1] and in data set [3] were less than 10 µg/fly and “approximately 200 mg”, respectively. In addition, the “active on Myzus persicae at 1000 ppm” value in the data set with Myzus persicae is listed as “active”. Besides, in data set [2], the IC50 stood at 30 µg/mL (≈ 101 µM).
Regarding `CC(C)=CCC/C(C)=C/Cn1c(C)nc2c([N+](=O)[O-])cccc21` [1-Geranyl-2-methyl-4-nitrobenzimidazole], the “active at 1000 ppm” value in the data set on Musca domestica is on record as “active”. For the same compound, the LD₅₀ in data set [1] is reported as less than 10 µg/fly. Further, in the data set on Myzus persicae, the “active at 200 ppm” value is reported as “active”. In data set [2], the IC50 was 30 µg/mL (≈ 95.7 µM).
For `C=CCCC(C)=CCn1c(C)nc2ccccc21` [1-[3-Methylhepta-2,6-dienyl]-2-methylbenzimidazole], the IC50 in data set [2] turned out to be 30 µg/mL (≈ 125 µM).
On to `CON=CCC/C(C)=C/Cn1c(C)nc2ccccc21` [1-[(2E)-6-Methoxyimino-3-methylhex-2-enyl]-2-methybenzimidazole], for which the LD₅₀ in data set [1] is less than 10 µg/fly; in data set [3], “approximately 200 mg”.
With `C=CCCC=CCn1c(C)nc2ccccc21` [1-[Hepta-2,6-dienyl]-2-methylbenzimidazole], the IC50 in data set [2] is 30 µg/mL (≈ 133 µM).
On to `CC(C)=CCC/C(C)=C/Cn1c(Cl)nc2ccccc21` [2-Chloro-1-geranylbenzimidazole], for which the “active at 1000 ppm” value with Musca domestica is “active”. In data set [1], this compound returned an LD₅₀ of less than 10 µg/fly. Also, the “active on Myzus persicae at 1000 ppm” value in the data set on Myzus persicae was “active”.
For the compound `C/C(=C\Cn1c(C)nc2ccccc21)CCC=NOCc1ccccc1` [2-Methyl-1-[(2E)-3-methyl-6-benzyloxyiminohex-2-enyl]benzimidazole], the IC50 in data set [2] stood at 30 µg/mL (≈ 86.3 µM).
In data set [2], `CC(C)=CCC/C(C)=C/Cn1c(C)nc2c(Cl)cc(Cl)cc21` [4(7),6(5)-Dichloro-1-geranyl-2-methylbenzimidazole] displayed an IC₅₀ of 30 ppm.
As to `CC(C)=CCC/C(C)=C/Cn1c(C)nc2c(N)cccc21` [4-Amino-1-geranyl-2-methylbenzimidazole], the “active at 1000 ppm” value in the data set on Musca domestica is “active”. For the same compound, the LD₅₀ in data set [1] is listed as less than 10 µg/fly. For the same compound, in data set [2], the IC50 was determined as 30 µg/mL (≈ 106 µM).
In the case of `COC(C)(C)CCC/C(C)=C/Cn1c(C)nc2c(C)c(C)ccc21` [(2E)-1-(7-Methoxy-3,7-dimethyloct-2-enyl)-2,4,5-trimethylbenzimidazole], the “active at 200 ppm” value in the data set with Musca domestica and in the data set with Myzus persicae was “active” each time. This compound gave an LD₅₀ in data set [1] of less than 10 µg/fly. In the data set with Plutella xylostella, the “active at 1000 ppm” value is listed as “active”.
As to `COC(C)(C)CCC/C(C)=C/Cn1c(C)nc2c(C)cccc21` [(2E)-1-(7-Methoxy-3,7-dimethyloct-2-enyl)-2,4-dimethylbenzimidazole], the “active at 200 ppm” value with Musca domestica and in the data set on Myzus persicae was “active” throughout. Further, the LD₅₀ in data set [1] is given as less than 10 µg/fly. In the data set with Tetranychus urticae, the “active against Tetranychus urticae at 200 ppm” value is listed as “active”. Besides, the IC50 in data set [2] was 30 µg/mL (≈ 95.4 µM).
As to `COC(C)(C)CCC/C(C)=C/Cn1c(C)nc2ccc(C)c(C)c21` [(2E)-1-(7-Methoxy-3,7-dimethyloct-2-enyl)-2,6,7-trimethylbenzimidazole], the IC50 in data set [2] was 30 µg/mL (≈ 91.3 µM).
As to `CC=CCC/C(C)=C/Cn1c(C)nc2ccccc21` [(2E)-2-Methyl-1-(3-methlocta-2,6-dienyl)benzimidazole], in data set [1], the LD₅₀ is less than 10 µg/fly. Further, in data set [2], the IC50 worked out at 30 µg/mL (≈ 118 µM).
`CC(C)=CCC/C(C)=C/CC/C(C)=C/Cn1c(C)nc2c(C)cccc21` [(2E,6E)-2,4-dimethyl-1-(3,7,11)-(trimethyldodeca-2,6,10-trienyl)benzimidazole]: the IC50 in data set [2] is 30 µg/mL (≈ 85.6 µM).
Take `COc1ccc2c(c1)nc(C)n2C/C=C(\C)CC/C=C(\C)CCC=C(C)C` [(2E,6E)-5-Methoxy-2-methyl-1-(3,7,11-trimethyldodeca-2,6,10-trienyl)benzimidazole]: in data set [2], the IC50 worked out at 30 µg/mL (≈ 81.8 µM).
Take `C/C(=C\Cn1c(C)nc2ccccc21)CCCC(C)(C)OC(=O)Nc1ccccc1` [(5E)-7-(2-Methylbenzimidazole-1-yl)-1,1,5-trimethylhept-5-enyl-N-phenyl-carbamate]: the LD₅₀ in data set [1] was less than 10 µg/fly. Besides, in data set [2], the IC50 is 30 µg/mL (≈ 74 µM).
As to `COC(=O)c1cccc2nc(C)n(C/C=C(\C)CCC=C(C)C)c12` [Methyl 1-geranyl-2-methyl-benzimidazole-7-carboxylate], the IC50 in data set [2] came out at 30 µg/mL (≈ 91.9 µM).
